For assay [1], the target named is T1, BgaA catalytic region (GH2; SpBgaA) (Streptococcus pneumoniae, UniProt A0A0H2UP19).
T1 construct: N-terminal catalytic region, domains I-V (GH2 region printed as residues 138-993; SpBgaA146-990 in cell assay); pET28-based expression in E. coli; source strain and exact borders not in main text
The experiment in a line: steady-state kinetics, UV-visible spectrophotometry; apparent Km/Vmax against inhibitor concentration. It counts as biochemical.

For assay [2], the target named is T1, BgaA catalytic region (GH2; SpBgaA). The experiment in a line: isothermal titration calorimetry. In kind it is binding. (Isothermal titration calorimetry measures the heat released or taken up as one component is titrated into another.)
In assay [3] the target is T2, CBM71-1 (Streptococcus pneumoniae, UniProt Q8DQP4).
T2 construct: gene bgaA; pET28-based expression in E. coli; exact borders not in text
The experiment in a line: UV difference spectroscopy. It counts as binding. To be noted: 25 °C; too weak to quantify.

Assay [4] concerns the target T3, CBM71-2 (Streptococcus pneumoniae, UniProt Q8DQP4).
T3 construct: gene bgaA; pET28-based expression in E. coli; exact borders not in text
Put plainly: UV difference spectroscopy. As to conditions: 25 °C; too weak to quantify. It counts as binding.

In assay [5] the target is T3, CBM71-2. Put plainly: isothermal titration calorimetry. In kind it is binding. As to conditions: PBS, 25 °C.
The target in assay [6] is T2, CBM71-1. The experiment in a line: isothermal titration calorimetry. It counts as binding. To be noted: PBS, 25 °C.

As usually defined, the Kd is the constant that tells how readily two partners part at equilibrium. Low readings indicate a tighter complex, high ones a looser complex.

Each structure is given as a SMILES string.

T3 sequence (Q8DQP4 entry or part of it): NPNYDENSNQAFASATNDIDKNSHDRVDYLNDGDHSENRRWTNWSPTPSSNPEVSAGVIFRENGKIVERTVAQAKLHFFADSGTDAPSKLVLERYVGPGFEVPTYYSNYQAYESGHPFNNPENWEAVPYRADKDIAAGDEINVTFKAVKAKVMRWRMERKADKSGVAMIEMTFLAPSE
T2 sequence (Q8DQP4 entry or part of it): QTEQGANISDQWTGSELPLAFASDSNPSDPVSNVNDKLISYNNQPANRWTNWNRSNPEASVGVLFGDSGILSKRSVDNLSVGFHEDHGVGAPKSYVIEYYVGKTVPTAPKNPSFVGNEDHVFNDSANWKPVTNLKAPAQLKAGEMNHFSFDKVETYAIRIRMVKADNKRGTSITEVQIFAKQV

Take `OC[C@H]1NC(O)[C@H](O)[C@@H](O)[C@H]1O` (stereo partly drawn) [galactonojirimycin]: the Ki in assay [1] worked out at 33.9 µM.

With `OC[C@H]1CNC[C@@H](O)[C@H]1O` [galactoisofagomine], in assay [1], the Ki stood at 0.025 µM. Further, binding in assay [2] was put at a Kd of 0.026 µM. `OC[C@H]1OC(O)[C@H](O)[C@@H](O)[C@H]1O` (stereo partly drawn) [D-galactose]: the UV difference spectroscopy entry at CBM71-1 [3] was “only D-galactose gave a signature UV difference spectrum consistent with sugar binding”; on CBM71-2 [4] it was “For both CBMs, the binding to galactose was too weak to quantify”. For `CC(=O)N[C@H]1C(O)O[C@H](CO)[C@@H](O[C@@H]2O[C@H](CO)[C@H](O)[C@H](O)[C@H]2O)[C@@H]1O` (stereo partly drawn) [LacNAc], the Kd on CBM71-2 [5] came out at 247 µM; on CBM71-1 [6], 251 µM. For `OC[C@H]1O[C@@H](O[C@H]2[C@H](O)[C@@H](O)C(O)O[C@@H]2CO)[C@H](O)[C@@H](O)[C@H]1O` (stereo partly drawn) [lactose] the same measures were 378 µM and 368 µM.

Source of the values: PMC4161441, “Unravelling the Multiple Functions of the Architecturally Intricate Streptococcus pneumoniae β-galactosidase, BgaA” (PLoS Pathogens, 2014).
